This is an account of results in patent publication US20010011146A1, “NEUROPROTECTIVE COMPOUNDS AND USES THEREOF” (priority 1997, published 2001).

Molecules are shown by their SMILES. Entries after “also recorded” stand apart in the source; their conditions may differ. Where two headings read alike, the source gives them in different places.

Data set [1] has as its system NADPH-diaphorase activity in CA1 hippocampus. Briefly: NADPH-diaphorase histochemistry in postischemic CA1 hippocampus. The settings on record: triple i.p. injection 10 mg/kg during reperfusion. In kind it is in vivo, male Wister rats. The protocol: (§1) NAMDA administration. Animals subject to 10 minutes of ischemia randomly were divided into 4 groups. Animals received one of the following triple intraperitoneal injections: i) saline at 0, 0.5, and 2 hours, ii) NAMDA (10 mg/kg) at 0, 0.5, and 2 hours, iii) NAMDA at 1, 1.5, and 3 hours, and iv) NAMDA at 2, 2.5, and 4 hours of cerebral reperfusion. To examine whether NAMDA caused hypothermia, the animals' body temperatures were recorded for up to the first 4 hours of cerebral reperfusion. Sham-operated animals that underwent surgery and carotid manipulation were used as non-ischemic controls.
Tissue preparation. Animals were anesthetized with sodium pentobarbital (120 mg/kg) and perfused transcardially with saline containing 0.5% sodium nitrite and 10 U/ml heparin sulfate followed by 4% cold formaldehyde in 0.1 M sodium phosphate buffer (PB, pH 7.2). The brains were further postfixed for 2 hours and stored in a 30% sucrose solution overnight. Fixed brains were sectioned at 30 μm on a sliding microtome. For each animal, the dorsal hippocampus between bregma −2.5 mm and −4.0 mm was sampled. Some sections were […] on slides and stained with cresyl violet to measure neuronal density. Others were used for free floating NADPH-diaphorase histochemistry.
NADPH-Diaphorase histochemistry. […]

Data set [2] is described as follows: Body temperature recording during cerebral reperfusion (4-VO ischemic animals). In kind it is in vivo, male Wister rats. The settings on record: for Temperature recording during cerebral reperfusion: mean ± s.e.m., in °C (unit assumed).
Description: (§2) Four-vessel occlusion (“4-VO”) ischemia. All procedures regarding animals were in compliance with AALAC guidelines set forth in the PHS animal “Guide in the Care and Use of Laboratory Animals”. Animals (male Wister rats, 200-250 gr, Hill Top, Scottsdale) were anesthetized with a mixture of halothane (1%), oxygen, and nitrogen, and surgically prepared for 4-VO according to the method described by Pulsinell, W. A., et al., “Regional Cerebral Blood Flow and Glucose Metabolism Following Transient Forebrain Ischemia,” Ann. Neurol., 11:499-502 (1982), which is hereby incorporated by reference. Surgical procedures included placing reversible clasps around the common carotid arteries and placing a suture around the neck muscles to control collateral blood flow to the brain. Food was withheld overnight, but water was freely available. On the following day, 10 minutes of 4-VO ischemia was induced by tightening the clasps around the common carotid arteries and the suture. In order to minimize variability, the following criteria was set: loss of righting reflex and bilateral pupil dilation during the entire ischemic period, and 20±5 minutes of postischemic coma after 10 minutes of ischemia. Only animals that meet these criteria were included in the study. The body temperature of all animals was kept at 37.5±0.5° C. by a thermocouple-regulated heating lamp during ischemia and reperfusion until the animals regained consciousness and established thermo-homeostasis.
as §1
The animals' body temperature was kept at 37.5±0.5° C. during ischemia and first half hour of cerebral reperfusion when animals were typically stayed in postischemic coma. Temperatures were recorded soon after animals regained consciousness and recorded for up to 4 hours of cerebral reperfusion (Table 1).

The test system of another data set is BV-2 microglia cells. The data set is described as follows: Nitrite measurement (Griess reaction) in BV-2 microglia cells. The settings on record: 6 hours, 0.05-5 mM. Format: cell-based, murine. On the procedure: Nitrite measurement on microylial cell. To measure nitrite level, a NO oxidative metabolite, murine BV-2 cells, were used. […] The cells were grown and maintained in Dulbeccos Modified Eagle medium (“DMEM”, Gibco, Gaithersburg, Md.) supplemented with 10% fetal calf serum and penicillin/streptomycine at 37° C. in a humidified incubator under 5% CO2. BV-2 microglia cells were cultured and grown in 24 well culture plates and treated for 6 hours with 0. 0.05, 0.5, 2, or 5 mM or NAMDA either in the presence or absence of lipopolysaccharide (LPS, 0.2 μg/ml).
After the treatment, 200 μl aliquots of cell supernatant from each well were mixed with 100 μl of Griess reagent (1 % sulphanilamide, 0.1% naphthylethylenediamine dihydrochloride, 2.5% H3PO4) in 96 well microtiter plates. The mixtures were incubated for 10 minutes to form a chromophore and the absorbance was read at 540 nm using a plate reader. The amount of nitrite accumulation from media was determined against a standard curve generated by a known concentration of […]. After removal of the supernatant for the nitrite assay, cells were immediately washed with 0.1M PB, fixed with 4% formaldehyde for 30 minutes, and washed with 0.1M PB for 5 minutes. NADPH-diaphorase histochemical staining was performed as described above. […]

For data set [3], the system named is NADPH-diaphorase activity in BV-2 cells. The data set is described as follows: NADPH-diaphorase histochemical staining in BV-2 cells. The settings on record: 5 mM. In kind it is cell-based, murine. The protocol:
NADPH-Diaphorase histochemistry. The histochemical staining was performed according to the method described by Vincent, et al., “Histochemical Mapping of Nitric Oxide Synthase in the Rat Brain,” Neuroscience, 46:755-784 (1992), which is hereby incorporated by reference). Sections containing dorsal hippocampus are washed twice in 0.1 M phosphate buffer (“PB”) and then processed for NADPH-diaphorase histochemistry. To establish a temporal profile of NADPH-diaphorase staining during postischemic period, sections were obtained from animals that were perfuse fixed at 12 hours, 24 hours, 48 hours, 72 hours, and 7 days after ischemia. The sections were then incubated for 1 hour at 37° C. with a solution containing 1 mg/ml of NADPH, 0.25 mg/ml of nitro blue tetrazolium (“NBT”), and 0.3% Triton X-100 in 0.1 M PB. The reaction was terminated by the addition of cold 0.1M PB. […]
After the treatment, 200 μl aliquots of cell supernatant from each well were mixed with 100 μl of Griess reagent (1 % sulphanilamide, 0.1% naphthylethylenediamine dihydrochloride, 2.5% H3PO4) in 96 well microtiter plates. The mixtures were incubated for 10 minutes to form a chromophore and the absorbance was read at 540 nm using a plate reader. The amount of nitrite accumulation from media was determined against a standard curve generated by a known concentration of NaNO3. […]

In the next data set the test system is BV-2 cells. The data set is described as follows: Cell number count by tryphan exclusion in BV-2 cells. Format: cell-based, murine. The settings on record: with or without LPS; end of 6 hours treatment; up to 5 mM.
Data set [4] deals with CA1 hippocampal neurons. Briefly: Four-vessel occlusion (4-VO) ischemia, CA1 neuronal density measurement. In kind it is in vivo, male Wister rats.
Description: as §2, §1
Tissue preparation. […] Some sections were […] on slides and stained with cresyl violet to measure neuronal density. […]
Cell density measurement. […] Neurons were counted in the frame if part or all of the nucleus was within the frame and not in contact with the left or bottom border of the frame. […] The number of neurons counted were divided by the total volume sampled to generate the density of neurons in CA1. Mean neuron density was calculated for the left and right hippocampus (side) and for the anterior and posterior regions for each animal. […]

The conditions of data set [5]: background statement; cited from earlier work.
Data set [6] has as its system CA1 hippocampal neurons. The settings on record: Cho et al. 1997, cited from earlier work.

Consider `COc1cc(CCNC(C)=O)ccc1O` [NAMDA, N-acetyl-3-O-methyldopamine], for which the “Ischemia-induced NADPH-diaphorase staining in CA1” value in data set [1] (24 hours postischemic) was “markedly reduced”; in data set [1] (48 hours after ischemia), “attenuation of the staining was persisted”. Moreover, the “Effect on body temperature versus saline-treated ischemic group” value in data set [2] (10 mg/kg triple i.p., any time point up to 4 hours of reperfusion, ANOVA, Newman-Keuls) is given as “no differences in body temperatures”. The “Temperature recording during cerebral reperfusion” value in data set [2] (NC-111 (0, 0.5, 2 h), n = 9, postischemic time 1 hour) came out at 37.6 ± 0.2; in data set [2] (NC-111 (0, 0.5, 2 h), n = 9, postischemic time 1.5 hour), 37.3 ± 0.1; in data set [2] (NC-111 (0, 0.5, 2 h), n = 9, postischemic time 2 hour), 37.3 ± 0.1; in data set [2] (NC-111 (0, 0.5, 2 h), n = 9, postischemic time 3 hour), 37.5 ± 0.2; in data set [2] (NC-111 (0, 0.5, 2 h), n = 9, postischemic time 4 hour), 37.2 ± 0.1; in data set [2] (NC-111 (1 h) group (injections at 1, 1.5, 3 h), n = 7, postischemic time 0.5 hour), 37.9 ± 0.2. Further, the “Temperature recording during cerebral reperfusion” value in data set [2] (NC-111 (1 h) group, n = 7, postischemic time 1 hour) is 36.9 ± 0.1; in data set [2] (NC-111 (1 h) group, n = 7, postischemic time 1.5 hour), 37.0 ± 0.1; in data set [2] (NC-111 (1 h) group, n = 7, postischemic time 2 hour) it was 37.4 ± 0.1; in data set [2] (NC-111 (1 h) group, n = 7, postischemic time 3 hour), 37.5 ± 0.2; in data set [2] (NC-111 (1 h) group, n = 7, postischemic time 4 hour), 37.5 ± 0.3; in data set [2] (NC-111 (2 hr) group (injections at 2, 2.5, 4 h), n = 6, postischemic time 0.5 hour), 38.3 ± 0.2. The “Temperature recording during cerebral reperfusion” value in data set [2] (NC-111 (2 hr) group, n = 6, postischemic time 1 hour) was 36.8 ± 0.3; in data set [2] (NC-111 (2 hr) group, n = 6, postischemic time 1.5 hour) it was 37.2 ± 0.4; in data set [2] (NC-111 (2 hr) group, n = 6, postischemic time 2 hour) it was 37.4 ± 0.2; in data set [2] (NC-111 (2 hr) group, n = 6, postischemic time 3 hour), 37.3 ± 0.2; in data set [2] (NC-111 (2 hr) group, n = 6, postischemic time 4 hour), 37.9 ± 0.3; in data set [2] (NC-111 (injections at 0, 0.5, 2 h of reperfusion), n = 9, postischemic time 0.5 hour), 37.7 ± 0.2. For the same molecule, the “Nitrite accumulation in cell supernatant” value in the data set on BV-2 microglia cells (absence of LPS) is given as “did not alter nitrite accumulation”; in the data set with BV-2 microglia cells (presence of LPS 0.2 μg/ml, ANOVA p<0.001) it was “significantly reduced nitrite accumulation in a dose-dependent manner”. Moreover, the “Baseline NADPH-diaphorase staining intensity” value in data set [3] (absence of LPS) is on record as “not affected”. In data set [3] (presence of LPS), the “LPS-induced NADPH-diaphorase activity (staining)” value was “attenuated”. Besides, the “Total number of cells (cell viability)” value with BV-2 cells is “did not affect the total number of cells”. Also, the “CA1 neuronal density / protection of CA1 neurons (of non-ischemic control)” value in the data set on CA1 hippocampal neurons [4] (10 min 4-VO ischemia, 10 mg/kg i.p. at 0, 0.5, 2 h (immediately after reperfusion), measured one week later) is given as 45%. The “Protection of neurons in CA1 hippocampus” value in the data set on CA1 hippocampal neurons [4] (10 min 4-VO ischemia, NAMDA treatment versus saline, one week later, Fisher's PLSD p<0.0001) is listed as “significantly protected neurons in CA1 hippocampus”. Moreover, in the data set on CA1 hippocampal neurons [4] (10 min ischemia, NAMDA-ischemic n=3, 24 hours postischemic), the “Neuron density in CA1 at 24 hours postischemic” value is listed as 18.3±2.2 neurons/10^5 μm^3. Further, the “Protection of CA1 neurons with delayed administration” value in the data set with CA1 hippocampal neurons [4] (administration delayed up to 2 hours after ischemia, one week later) is given as “protect CA1 neurons despite delaying the treatment up to 2 hours; also recorded: significant protection of CA1 neurons”.

For `COc1ccc2[nH]cc(CCNC(C)=O)c2c1` [melatonin, Melatonin], the “Solubility in aqueous media” value in data set [5] is “insoluble in aqueous media”. The “Protection of CA1 neurons” value in the data set on CA1 hippocampal neurons [6] (administration starting immediately after / during reperfusion, 10 min transient forebrain ischemia) is “significantly protect CA1 neurons; also recorded: protects the CA1 hippocampal neurons”. Also, the “Protection of CA1 neurons with delayed administration” value with CA1 hippocampal neurons [6] (delay of one hour) is listed as “did not offer significant protection”. In addition, the “Protection of the neurons with delayed administration” value in the data set with CA1 hippocampal neurons [6] (delay of one to two hours in administration) is recorded as “significantly decreased protection of the neurons”.
